#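 Method: 48-hour compound exposure of cells in 96-well plates, five concentrations, linear interpolation of endpoints. GI50 = concentration required for 50% inhibition of growth. TGI marks complete inhibition of growth.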
# Assays:
# Test in all cases: DTP human tumour cell line panel, 48 h
# [1] = test system: 786-0 renal
# [2] = test system: A498 renal
# [3] = test system: A549 NSCLC
# [4] = test system: ACHN renal
# [5] = test system: BT-549 breast
# [6] = test system: CAKI-1 renal
# [7] = test system: CCRF-CEM leukemia
# [8] = test system: COLO 205 colon
# [9] = test system: DU-145 prostate
# [10] = test system: EKVX NSCLC
# [11] = test system: HCC-2998 colon
# [12] = test system: HCT-116 colon
# [13] = test system: HCT-15 colon
# [14] = test system: HL-60(TB) leukemia
# [15] = test system: HOP-62 NSCLC
# [16] = test system: HOP-92 NSCLC
# [17] = test system: HS 578T breast
# [18] = test system: HT29 colon
# [19] = test system: IGROV1 ovarian
# [20] = test system: K-562 leukemia
# [21] = test system: KM12 colon
# [22] = test system: M14 melanoma
# [23] = test system: MALME-3M melanoma
# [24] = test system: MCF7 breast
# [25] = test system: MDA-MB-231 breast
# [26] = test system: MDA-MB-435
# [27] = test system: MOLT-4 leukemia
# [28] = test system: NCI-H226 lung
# [29] = test system: NCI-H23 lung
# [30] = test system: NCI-H460 lung
# [31] = test system: NCI-H522 lung
# [32] = test system: NCI/ADR-RES ovarian
# [33] = test system: OVCAR-3 ovarian
# [34] = test system: OVCAR-4 ovarian
# [35] = test system: OVCAR-5 ovarian
# [36] = test system: PC-3 prostate
# [37] = test system: RPMI-8226 leukemia
# [38] = test system: RXF 393 renal
# [39] = test system: SF-268 CNS
# [40] = test system: SF-295 CNS
# [41] = test system: SF-539 CNS
# [42] = test system: SK-MEL-2 melanoma
# [43] = test system: SK-MEL-28 melanoma
# [44] = test system: SK-MEL-5 melanoma
# [45] = test system: SK-OV-3 ovarian
# [46] = test system: SN12C renal
# [47] = test system: SNB-19 CNS
# [48] = test system: SNB-75 CNS
# [49] = test system: SR leukemia
# [50] = test system: T-47D breast
# [51] = test system: TK-10 renal
# [52] = test system: U251 CNS
# [53] = test system: UACC-257 melanoma
# [54] = test system: UACC-62 melanoma
# [55] = test system: UO-31 renal
compound,measurement,setting,value
COc1ccc(-c2nnc(N3CCN(C(=O)CN4CCN(c5ccc(OC)cc5)CC4)CC3)nc2-c2ccc(OC)cc2)cc1,GI50,[1],15.3 µM
same,TGI,[1],40.6 µM
same,GI50,[2],25.8 µM
same,TGI,[2],50.4 µM
same,GI50,[3],25.6 µM
same,TGI,[3],> 100 µM
same,GI50,[4],18.1 µM
same,TGI,[4],50.8 µM
same,GI50,[5],3.53 µM
same,TGI,[5],24 µM
same,GI50,[6],15.5 µM
same,TGI,[6],51.1 µM
same,GI50,[7],3.02 µM
same,TGI,[7],6.06 µM
same,GI50,[8],6.36 µM
same,TGI,[8],29.7 µM
same,GI50,[9],12.2 µM
same,TGI,[9],26.5 µM
same,GI50,[10],7.86 µM
same,TGI,[10],> 65.9 µM
same,GI50,[11],18.8 µM
same,TGI,[11],47.2 µM
same,GI50,[12],1.71 µM
same,TGI,[12],3.11 µM
same,GI50,[13],6.96 µM
same,TGI,[13],34.6 µM
same,GI50,[14],1.88 µM
same,TGI,[14],6.5 µM
same,GI50,[15],16.5 µM
same,TGI,[15],44 µM
same,GI50,[16],16.1 µM
same,TGI,[16],35.2 µM
same,GI50,[17],2.84 µM
same,TGI,[17],9.2 µM
same,GI50,[18],3.39 µM
same,TGI,[18],10.8 µM
same,GI50,[19],6.7 µM
same,TGI,[19],> 78.6 µM
same,GI50,[20],2.14 µM
same,TGI,[20],4.44 µM
same,GI50,[21],2.93 µM
same,TGI,[21],8.4 µM
same,GI50,[22],2.6 µM
same,TGI,[22],6.28 µM
same,GI50,[23],3.17 µM
same,TGI,[23],23.1 µM
same,GI50,[24],1.76 µM
same,TGI,[24],3.56 µM
same,GI50,[25],11.7 µM
same,TGI,[25],41.2 µM
same,GI50,[26],4.01 µM
same,TGI,[26],> 55.9 µM
same,GI50,[27],1.63 µM
same,TGI,[27],3.8 µM
same,GI50,[28],5.53 µM
same,TGI,[28],34.5 µM
same,GI50,[29],9.73 µM
same,TGI,[29],33.4 µM
same,GI50,[30],15.4 µM
same,TGI,[30],> 62.3 µM
same,GI50,[31],3.32 µM
same,TGI,[31],9.25 µM
same,GI50,[32],9.89 µM
same,TGI,[32],31.9 µM
same,GI50,[33],2.1 µM
same,TGI,[33],4 µM
same,GI50,[34],3.47 µM
same,TGI,[34],12.5 µM
same,GI50,[35],27.6 µM
same,TGI,[35],53.1 µM
same,GI50,[36],8.49 µM
same,TGI,[36],26.9 µM
same,GI50,[37],2.37 µM
same,TGI,[37],6.5 µM
same,GI50,[38],5.38 µM
same,TGI,[38],38.8 µM
same,GI50,[39],3.62 µM
same,TGI,[39],14.2 µM
same,GI50,[40],20.3 µM
same,TGI,[40],> 72.1 µM
same,GI50,[41],14.1 µM
same,TGI,[41],33.2 µM
same,GI50,[42],10.2 µM
same,TGI,[42],44.1 µM
same,GI50,[43],13.4 µM
same,TGI,[43],34.6 µM
same,GI50,[44],2.4 µM
same,TGI,[44],6.83 µM
same,GI50,[45],20.8 µM
same,TGI,[45],45 µM
same,GI50,[46],3.2 µM
same,TGI,[46],15.5 µM
same,GI50,[47],20.7 µM
same,TGI,[47],46.4 µM
same,GI50,[48],15.6 µM
same,TGI,[48],44.8 µM
same,GI50,[49],2.1 µM
same,TGI,[49],4.04 µM
same,GI50,[50],2.78 µM
same,TGI,[50],9.36 µM
same,GI50,[51],19 µM
same,TGI,[51],62.5 µM
same,GI50,[52],5.31 µM
same,TGI,[52],66.1 µM
same,GI50,[53],17.5 µM
same,TGI,[53],39.5 µM
same,GI50,[54],12.1 µM
same,TGI,[54],53.1 µM
same,GI50,[55],12.5 µM
same,TGI,[55],39.7 µM
